In ChEMBL document CHEMBL6083182, “Development of Peptide Paratope Mimics Derived from the Anti-ROR1 Antibody and Long-Acting Peptide-Drug Conjugates for Targeted Cancer Therapy” (J Med Chem, 2024):
The source made the active and inactive calls. No cut-off for these calls is given here. Where a SMILES comes first, the peptide text is derived from it. [ ]: non-standard residue; d: D form. The star is where a group is joined. X1 = COc1cccc2c1C(=O)c1c(O)c3c(c(O)c1C2=O)C[C@@](O)(C(=O)CO)C[C@@H]3O[C@H]1C[C@H](NC(=O)OCc2ccc(NC(=O)C(CCCNC(N)=O)NC(=O)C(NC(=O)CCCCCN3C(=O)CC(*)C3=O)C(C)C)cc2)[C@H](O)[C@H](C)O1; C18 diacid = O=C(O)CCCCCCCCCCCCCCCCC(=O)*; AEEA = NCCOCCOCC(=O)O

Experiments:
[1] = Toxicity in BALB/c nude mouse xenografted with human MDA-MB-231 cells assessed as change in body weight at 5 mg/kg, iv measured after first injection starting from day 3 on day 6; assay type: organism-based; conditions: in vivo, 72 h, time 3 day
MDA-MB-231 [2] = experiment: Induction of apoptosis in human MDA-MB-231 cells assessed as viable cells at 15 nM incubated for 24 hrs by AnnexinV-FITC/PI staining based flow cytometry (reference value: 99.9%); assay type: functional; conditions: read-out: Activity
MDA-MB-231 [3] = experiment: Induction of apoptosis in human MDA-MB-231 cells assessed as early apoptotic cells at 16 nM incubated for 24 hrs by AnnexinV-FITC/PI staining based flow cytometry (reference value: 0%); assay type: functional
MDA-MB-231 [4] = experiment: Induction of apoptosis in human MDA-MB-231 cells assessed as necrotic cells at 16 nM incubated for 24 hrs by AnnexinV-FITC/PI staining based flow cytometry (reference value: 0.034%); assay type: functional
MDA-MB-231 [5] = experiment: Induction of apoptosis in human MDA-MB-231 cells assessed as viable cells at 16 nM incubated for 24 hrs by AnnexinV-FITC/PI staining based flow cytometry (reference value: 99.9%); assay type: functional; conditions: read-out: Activity
[6] = Toxicity in BALB/c nude mouse xenografted with human MDA-MB-231 cells assessed as effect on kidney at 5 mg/kg, iv administered once every 3 days for 27 days starting from day 3 by H and E staining based analysis; assay type: organism-based; conditions: in vivo
[7] = Area under the first moment curve in Sprague-Dawley rat at 15 mg/kg, iv measured upto 12 hrs by UPLC-QTOF/MS analysis; assay type: ADME, organism-based; conditions: in vivo
MDA-MB-231 [8] = experiment: Induction of apoptosis in human MDA-MB-231 cells assessed as early apoptotic cells at 15 nM incubated for 24 hrs by AnnexinV-FITC/PI staining based flow cytometry (reference value: 0%); assay type: functional
[9] = Toxicity in BALB/c nude mouse xenografted with human MDA-MB-231 cells assessed as body weight loss at 5 mg/kg, iv administered once every 3 days for 27 days starting from day 3; assay type: organism-based; conditions: in vivo, 576 h, time 24 day
[10] = AUC(0 to infinity) in Sprague-Dawley rat at 15 mg/kg, iv measured upto 12 hrs by UPLC-QTOF/MS analysis; assay type: ADME, organism-based; conditions: in vivo
SK-HEP1 = experiment: Cytotoxicity against human SK-HEP1 cells assessed as decrease in cell viability incubated for 24 hrs by CCK-8 assay; assay type: functional, cell-based; conditions: SK-HEP1, 24 h
[11] = Drug uptake in ROR1-positive human MDA-MB-231 cells cytoplasm assessed as increase in red fluorescence at 10 uM measured after 2 hrs by Hoechst 33342 staining based confocal fluorescence microscopic analysis; assay type: ADME, subcellular; conditions: mda-mb-231, 2 h
MDA-MB-231 [12] = experiment: Induction of apoptosis in human MDA-MB-231 cells assessed as late apoptotic cells at 15 nM incubated for 24 hrs by AnnexinV-FITC/PI staining based flow cytometry (reference value: 0.034%); assay type: functional
[13] = Cytotoxicity against human MCF-10A cells assessed as decrease in cell viability incubated for 24 hrs by CCK-8 assay; assay type: toxicity, cell-based
[14] = Half life in Sprague-Dawley rat at 15 mg/kg, iv measured upto 12 hrs by UPLC-QTOF/MS analysis; assay type: ADME, organism-based; conditions: in vivo
[15] = MRT in Sprague-Dawley rat at 15 mg/kg, iv measured upto 12 hrs by UPLC-QTOF/MS analysis; assay type: ADME, organism-based; conditions: in vivo
[16] = Toxicity in BALB/c nude mouse xenografted with human MDA-MB-231 cells assessed as effect on heart at 5 mg/kg, iv administered once every 3 days for 27 days starting from day 3 by H and E staining based analysis; assay type: organism-based; conditions: in vivo, 576 h, time 24 day
MDA-MB-231 [17] = experiment: Induction of apoptosis in human MDA-MB-231 cells assessed as late apoptotic cells at 16 nM incubated for 24 hrs by AnnexinV-FITC/PI staining based flow cytometry (reference value: 0.034%); assay type: functional
[18] = Drug uptake in ROR1-negative human MCF7 cells assessed as increase in fluorescence intensity at 10 uM incubated for 2 hrs by Hoechst 33342 staining based confocal fluorescence microscopic analysis; assay type: ADME, cell-based; conditions: mcf7, 2 h
[19] = AUC(0 to t) in Sprague-Dawley rat at 15 mg/kg, iv measured upto 12 hrs by UPLC-QTOF/MS analysis; assay type: ADME, organism-based; conditions: in vivo
[20] = Clearance in Sprague-Dawley rat at 15 mg/kg, iv measured upto 12 hrs by UPLC-QTOF/MS analysis; assay type: ADME, organism-based; conditions: in vivo
MDA-MB-231 [21] = experiment: Antitumor activity against human MDA-MB-231 cells xenografted in BALB/c nude mouse assessed as tumor growth inhibition at 5 mg/kg, iv administered once every 3 days for 27 days starting from day 3; assay type: functional, organism-based; conditions: time 24.0 day
[22] = Elimination rate constant in Sprague-Dawley rat at 15 mg/kg, iv measured upto 12 hrs by UPLC-QTOF/MS analysis; assay type: ADME, organism-based; conditions: in vivo
MDA-MB-231 [23] = experiment: Antitumor activity against human MDA-MB-231 cells xenografted in BALB/c nude mouse assessed as reduction in tumor volume at 5 mg/kg, iv measured after first injection starting from day 3 on day 6; assay type: functional, organism-based; conditions: time 3.0 day
MDA-MB-231 [24] = experiment: Cytotoxicity against ROR1-positive human MDA-MB-231 cells assessed as decrease in cell viability incubated for 24 hrs by CCK-8 assay; assay type: functional, cell-based; conditions: MDA-MB-231, 24 h
MDA-MB-231 [25] = experiment: Induction of apoptosis in human MDA-MB-231 cells at 10 uM incubated for 24 hrs by Annexin V-FITC/PI staining based flow cytometric analysis; assay type: functional, cell-based
[26] = Toxicity in BALB/c nude mouse xenografted in human MDA-MB-231 cells assessed as effect on AST level at 5 mg/kg, iv administered once every 3 days for 27 days starting from day 3; assay type: organism-based; conditions: in vivo, 576 h, time 24 day
[27] = Toxicity in BALB/c nude mouse xenografted with human MDA-MB-231 cells assessed as effect on lung at 5 mg/kg, iv administered once every 3 days for 27 days starting from day 3 by H and E staining based analysis; assay type: organism-based; conditions: in vivo
[28] = Toxicity in BALB/c nude mouse xenografted with human MDA-MB-231 cells assessed as effect on ALT level at 5 mg/kg, iv administered once every 3 days for 27 days starting from day 3; assay type: organism-based; conditions: in vivo, 576 h, time 24 day
[29] = Toxicity in BALB/c nude mouse xenografted with human MDA-MB-231 cells assessed as effect on liver at 5 mg/kg, iv administered once every 3 days for 27 days starting from day 3 by H and E staining based analysis; assay type: organism-based; conditions: in vivo, 576 h, time 24 day
MDA-MB-231 [30] = experiment: Induction of apoptosis in human MDA-MB-231 cells assessed as necrotic cells at 15 nM incubated for 24 hrs by AnnexinV-FITC/PI staining based flow cytometry (reference value: 0.034%); assay type: functional
[31] = Toxicity in BALB/c nude mouse xenografted with human MDA-MB-231 cells assessed as effect on spleen at 5 mg/kg, iv administered once every 3 days for 27 days starting from day 3 by H and E staining based analysis; assay type: organism-based; conditions: in vivo, 576 h, time 24 day
MCF7 [32] = experiment: Cytotoxicity against ROR1-negative human MCF7 cells assessed as decrease in cell viability incubated for 24 hrs by CCK-8 assay; assay type: functional, cell-based; conditions: MCF7, 24 h
[33] = biological target: T1, Inactive tyrosine-protein kinase transmembrane receptor ROR1 (Homo sapiens, UniProt Q01973); experiment: Binding affinity to N-terminal His/GST-tagged recombinant human ROR1 (453 to 783 residues) extracted from baculovirus infected insect cells assessed as dissociation constant by SPR analysis
[34] = Drug uptake in ROR1 positive human MDA-MB-231 cells administered as FITC-labeled compound and measured after 30 to 120 mins by Hoechst 33342 staining based confocal fluorescence microscopic analysis; assay type: ADME, cell-based; conditions: time 30-120 min
[35] = Drug uptake in BALB/c nude mouse kidney xenografted with human MDA-MB-231 cells assessed as increase in fluorescence signal administered as indocyanine green dye conjugate and measured after 1 hrs by ex-vivo imaging analysis; assay type: ADME, tissue-based
MCF7 [36] = experiment: Binding affinity to ROR1 negative human MCF7 cells at 10 uM administered as FITC-labeled compound and measured after 30 mins by Hoechst 33342 staining based confocal fluorescence microscopic analysis; assay type: functional, cell-based
[37] = Drug penetration in human MDA-MB-231 cell spheroids assessed as increase in penetration rate at 10 uM administered as FITC-labeled compound and measured at 0.5 hrs by dual-color in vivo high-speed two-photon imaging system; assay type: ADME; conditions: mda-mb-231, 0.5 h
[38] = biological target: T1, Inactive tyrosine-protein kinase transmembrane receptor ROR1; experiment: Binding affinity to ROR1 positive human MDA-MB-231 cells at 10 uM administered as FITC-labeled compound and measured after 30 mins by Hoechst 33342 staining based confocal fluorescence microscopic analysis; assay type: cell-based
[39] = Drug uptake in BALB/c nude mouse tumor xenografted with human MDA-MB-231 cells assessed as increase in fluorescence signal administered as indocyanine green dye conjugate and measured after 0.5 hrs by invivo imaging analysis; assay type: ADME, tissue-based, Neoplasm; conditions: in vivo
[40] = Drug uptake in BALB/c nude mouse tumor xenografted with human MDA-MB-231 cells assessed as increase in fluorescence signal administered as indocyanine green dye conjugate and measured after 1 hrs by ex-vivo imaging analysis; assay type: ADME, tissue-based, Neoplasm
Homo sapiens = organism: Homo sapiens; experiment: Binding affinity to CD16A (unknown origin) by SPR analysis
[41] = Drug distribution in BALB/c nude mouse tumor xenografted with human MDA-MB-231 cells assessed as increase in fluorescence signal administered as indocyanine green dye conjugate and measured after 1 hrs by DAPI staining based immunofluorescence analysis; assay type: ADME, tissue-based, Neoplasm; conditions: in vivo
[42] = Drug penetration in human MDA-MB-231 cell spheroids assessed as fluorescence penetration rate at 10 uM administered as FITC-labeled compound and measured at 1 hrs by dual-color in vivo high-speed two-photon imaging system; assay type: ADME; conditions: mda-mb-231, 1 h
[43] = Drug uptake in BALB/c nude mouse liver xenografted with human MDA-MB-231 cells assessed as increase in fluorescence signal administered as indocyanine green dye conjugate and measured after 1 hrs by ex-vivo imaging analysis; assay type: ADME, tissue-based

T1 sequence (Q01973 whole entry, the tested form may be a part): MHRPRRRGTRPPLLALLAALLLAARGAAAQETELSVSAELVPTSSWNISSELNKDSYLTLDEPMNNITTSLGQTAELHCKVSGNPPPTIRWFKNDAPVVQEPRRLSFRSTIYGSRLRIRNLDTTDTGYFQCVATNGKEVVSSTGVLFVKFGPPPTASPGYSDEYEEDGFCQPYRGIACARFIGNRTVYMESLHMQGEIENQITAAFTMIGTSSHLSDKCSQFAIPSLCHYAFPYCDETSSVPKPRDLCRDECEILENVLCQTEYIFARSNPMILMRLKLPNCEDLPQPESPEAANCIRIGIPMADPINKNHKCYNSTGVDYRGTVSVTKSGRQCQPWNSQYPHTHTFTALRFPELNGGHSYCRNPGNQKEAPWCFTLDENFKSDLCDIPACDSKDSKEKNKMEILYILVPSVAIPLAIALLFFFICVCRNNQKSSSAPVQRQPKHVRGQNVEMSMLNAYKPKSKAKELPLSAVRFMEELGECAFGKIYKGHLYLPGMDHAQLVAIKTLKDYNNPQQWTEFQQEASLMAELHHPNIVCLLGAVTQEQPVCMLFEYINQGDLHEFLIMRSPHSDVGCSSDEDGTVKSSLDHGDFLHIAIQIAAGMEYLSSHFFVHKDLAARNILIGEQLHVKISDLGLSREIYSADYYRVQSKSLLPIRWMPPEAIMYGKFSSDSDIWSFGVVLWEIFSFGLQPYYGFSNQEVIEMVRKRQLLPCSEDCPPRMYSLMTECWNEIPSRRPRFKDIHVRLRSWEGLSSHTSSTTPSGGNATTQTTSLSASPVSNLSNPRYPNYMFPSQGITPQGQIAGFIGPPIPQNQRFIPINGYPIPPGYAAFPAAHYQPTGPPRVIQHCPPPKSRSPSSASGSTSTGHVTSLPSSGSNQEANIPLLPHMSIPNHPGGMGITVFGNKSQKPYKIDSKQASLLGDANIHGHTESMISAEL

CC[C@H](C)[C@H](NC(=O)[C@H](CC(=O)O)NC(=O)[C@H](CO)NC(=O)CNC(=O)[C@H](CSC1CC(=O)N(CCCCCC(=O)NC(C(=O)NC(CCCNC(N)=O)C(=O)Nc2ccc(COC(=O)N[C@H]3C[C@H](O[C@H]4C[C@](O)(C(=O)CO)Cc5c(O)c6c(c(O)c54)C(=O)c4c(OC)cccc4C6=O)O[C@@H](C)[C@H]3O)cc2)C(C)C)C1=O)NC(=O)CNC(=O)[C@H](CCCCN)NC(=O)COCCOCCNC(=O)COCCOCCNC(=O)[C@H](CCC(=O)O)NC(=O)CCCCCCCCCCCCCCCCC(=O)O)C(=O)N[C@@H](CC(N)=O)C(=O)N[C@@H](CC(=O)O)C(=O)N[C@@H](CCCNC(=N)N)C(=O)N[C@@H](CCC(N)=O)C(=O)N[C@H](C(=O)N1CCC[C@H]1C(=O)NCC(=O)N[C@@H](Cc1ccc(O)cc1)C(=O)N[C@@H](CO)C(=O)N[C@H](C(=O)N[C@@H](Cc1ccc(O)cc1)C(=O)N[C@@H](Cc1c[nH]c2ccccc12)C(=O)NCC(=O)N[C@@H](CC(=O)O)C(=O)N[C@@H](Cc1ccccc1)C(N)=O)[C@@H](C)O)[C@@H](C)CC (stereo partly specified) ({C18 diacid}-E[AEEA][AEEA]KGC(X1)GSDINDRQIPGYSTYWGDF-NH2)
Activity [1]: Non-toxic | viability at 0.015 µM (MDA-MB-231 [2]): 80.1% | Activity (MDA-MB-231 [3]): 39.7% | Activity (MDA-MB-231 [4]): 0.5% | viability at 0.016 µM (MDA-MB-231 [5]): 50.3% | Activity [6]: Non-toxic | AUMC [7]: 217552.348 ng/mL.hr^2 | Activity (MDA-MB-231 [8]): 13.3% | Activity [9]: Non-toxic | AUC(0-inf) [10]: 57.8 µg·h/mL | IC50 (SK-HEP1): 0.576 µM | Drug uptake [11]: Active | Activity (MDA-MB-231 [12]): 5.59% | IC50 at 24 h [13]: 23.2 µM | half-life [14]: 2.62 h | MRT [15]: 3.78 h | Activity [16]: Non-toxic | Activity (MDA-MB-231 [17]): 9.51% | Drug uptake [18]: Not_active | AUCt [19]: 55.1 µg·h/mL | CL [20]: 0.001 mg/ng/mL/h | Activity (MDA-MB-231 [21]): Active | k el at 12 h [22]: 8.92e-05 s⁻¹ | Activity (MDA-MB-231 [23]): inactive | IC50 (MDA-MB-231 [24]): 0.015 µM | Activity (MDA-MB-231 [25]): Active; Exhibited Apoptosis Primarily In Early Stage | Activity [26]: Toxic | Activity [27]: Non-toxic | Activity [28]: Toxic | Activity [29]: Non-toxic | Activity (MDA-MB-231 [30]): 1.02% | Activity [31]: Non-toxic | IC50 (MCF7 [32]): 10.5 µM | Kd [33]: 0.00172 µM

H-SDINDRQIPGYSTYWGDF-NH2
Drug uptake [34]: Active | Drug uptake [35]: Active | Activity (MCF7 [36]): inactive | Drug uptake [37]: Active | Activity [38]: Active | Drug uptake [39]: Active | Drug uptake [40]: Active | Activity (Homo sapiens): Not active; Abnormal Binding Affinity Curves Observed | Drug uptake [41]: Active | Drug uptake [42]: ~ 100% | Drug uptake [43]: Active | Kd [33]: 0.00157 µM
